In the experiment the target is T1, Prostaglandin D2 receptor (Homo sapiens, UniProt Q13258).
T1 sequence (Q13258 whole entry): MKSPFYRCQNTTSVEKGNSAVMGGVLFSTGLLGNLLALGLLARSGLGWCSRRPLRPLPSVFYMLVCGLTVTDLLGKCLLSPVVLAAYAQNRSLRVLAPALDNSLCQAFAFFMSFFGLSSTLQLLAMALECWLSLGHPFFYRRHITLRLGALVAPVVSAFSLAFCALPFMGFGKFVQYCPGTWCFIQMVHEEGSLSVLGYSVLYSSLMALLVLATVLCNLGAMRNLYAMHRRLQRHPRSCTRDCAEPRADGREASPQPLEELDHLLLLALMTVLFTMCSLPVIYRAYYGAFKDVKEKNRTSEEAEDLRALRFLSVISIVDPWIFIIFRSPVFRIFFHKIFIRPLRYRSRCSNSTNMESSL
Kind of experiment: Antagonist activity at prostaglandin D2 receptor in human LS174T cells assessed as inhibition of PGD2-induced cAMP accumulation after 15 mins by scintillation proximity assay. The experiment is classed as functional, cell-based. For orientation: Cyclic AMP is a second messenger, typically raised through Gs and lowered through Gi signalling.

As a reminder, the IC50 is the point on the concentration scale where inhibition reaches its midpoint.

With `COc1ccc(CCNc2cc(-c3ccc(F)c(/C=N/O)c3)nc(OC)n2)cc1`, the IC50 was 4.47 nM.
